Laboratory results as given in ChEMBL document CHEMBL5149982, “Development of Potent NEDD8-Activating Enzyme Inhibitors Bearing a Pyrimidotriazole Scaffold” (J Med Chem, 2021).
Values belong to the compound of their own block, whether it stands above or below them. Calls of active or inactive are those of the source. The rule behind the calls is not given here.

Key:
[1] = target: T1, NEDD8 activating enzyme (Homo sapiens, UniProt Q8TBC4); test: Inhibition of NAE (unknown origin) mediated neddylation assessed as decrease in NEDD8-Ubcl2 adduct formation incubated for 2 hrs in presence of L-glutathione and ATP by HTRF assay; type: protein-complex assay
T1 sequence (Q8TBC4 whole entry): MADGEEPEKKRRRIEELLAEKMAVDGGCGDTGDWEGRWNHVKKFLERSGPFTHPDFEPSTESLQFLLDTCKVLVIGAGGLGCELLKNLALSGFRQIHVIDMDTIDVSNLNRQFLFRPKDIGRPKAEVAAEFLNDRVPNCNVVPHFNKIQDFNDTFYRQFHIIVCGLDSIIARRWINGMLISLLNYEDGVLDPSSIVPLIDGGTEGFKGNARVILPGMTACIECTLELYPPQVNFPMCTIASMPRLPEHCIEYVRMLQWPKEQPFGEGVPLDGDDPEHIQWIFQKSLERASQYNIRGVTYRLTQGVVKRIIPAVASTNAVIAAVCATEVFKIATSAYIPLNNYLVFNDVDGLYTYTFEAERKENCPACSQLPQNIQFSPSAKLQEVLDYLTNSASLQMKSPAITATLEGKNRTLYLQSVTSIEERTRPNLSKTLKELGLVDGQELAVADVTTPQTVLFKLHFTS
T1 sequence (Q13564 whole entry): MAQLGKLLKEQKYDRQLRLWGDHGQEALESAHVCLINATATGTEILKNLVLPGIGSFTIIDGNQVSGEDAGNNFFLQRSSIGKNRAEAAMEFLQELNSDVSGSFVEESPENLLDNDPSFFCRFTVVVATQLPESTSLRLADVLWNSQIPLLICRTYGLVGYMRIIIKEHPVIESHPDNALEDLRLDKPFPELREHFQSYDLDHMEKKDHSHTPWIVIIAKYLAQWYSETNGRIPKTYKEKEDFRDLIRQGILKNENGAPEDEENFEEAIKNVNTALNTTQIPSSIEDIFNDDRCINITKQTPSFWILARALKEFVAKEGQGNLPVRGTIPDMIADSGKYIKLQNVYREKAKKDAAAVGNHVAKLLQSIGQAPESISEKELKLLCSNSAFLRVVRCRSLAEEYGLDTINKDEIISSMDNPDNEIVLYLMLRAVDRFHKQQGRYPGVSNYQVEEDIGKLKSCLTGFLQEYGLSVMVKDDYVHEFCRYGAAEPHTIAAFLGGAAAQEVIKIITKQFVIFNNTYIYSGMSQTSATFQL

[2] = test system: HCT-116; test: Antiproliferative activity against human HCT-116 cells assessed as cell growth inhibition by sulforhodamine B assay; type: functional, cell-based
[3] = target: Voltage-gated inwardly rectifying potassium channel KCNH2 (Homo sapiens, UniProt Q12809); test: Inhibition of hERG channel; type: toxicity
Chain of Voltage-gated inwardly rectifying potassium channel KCNH2 (Q12809 whole entry): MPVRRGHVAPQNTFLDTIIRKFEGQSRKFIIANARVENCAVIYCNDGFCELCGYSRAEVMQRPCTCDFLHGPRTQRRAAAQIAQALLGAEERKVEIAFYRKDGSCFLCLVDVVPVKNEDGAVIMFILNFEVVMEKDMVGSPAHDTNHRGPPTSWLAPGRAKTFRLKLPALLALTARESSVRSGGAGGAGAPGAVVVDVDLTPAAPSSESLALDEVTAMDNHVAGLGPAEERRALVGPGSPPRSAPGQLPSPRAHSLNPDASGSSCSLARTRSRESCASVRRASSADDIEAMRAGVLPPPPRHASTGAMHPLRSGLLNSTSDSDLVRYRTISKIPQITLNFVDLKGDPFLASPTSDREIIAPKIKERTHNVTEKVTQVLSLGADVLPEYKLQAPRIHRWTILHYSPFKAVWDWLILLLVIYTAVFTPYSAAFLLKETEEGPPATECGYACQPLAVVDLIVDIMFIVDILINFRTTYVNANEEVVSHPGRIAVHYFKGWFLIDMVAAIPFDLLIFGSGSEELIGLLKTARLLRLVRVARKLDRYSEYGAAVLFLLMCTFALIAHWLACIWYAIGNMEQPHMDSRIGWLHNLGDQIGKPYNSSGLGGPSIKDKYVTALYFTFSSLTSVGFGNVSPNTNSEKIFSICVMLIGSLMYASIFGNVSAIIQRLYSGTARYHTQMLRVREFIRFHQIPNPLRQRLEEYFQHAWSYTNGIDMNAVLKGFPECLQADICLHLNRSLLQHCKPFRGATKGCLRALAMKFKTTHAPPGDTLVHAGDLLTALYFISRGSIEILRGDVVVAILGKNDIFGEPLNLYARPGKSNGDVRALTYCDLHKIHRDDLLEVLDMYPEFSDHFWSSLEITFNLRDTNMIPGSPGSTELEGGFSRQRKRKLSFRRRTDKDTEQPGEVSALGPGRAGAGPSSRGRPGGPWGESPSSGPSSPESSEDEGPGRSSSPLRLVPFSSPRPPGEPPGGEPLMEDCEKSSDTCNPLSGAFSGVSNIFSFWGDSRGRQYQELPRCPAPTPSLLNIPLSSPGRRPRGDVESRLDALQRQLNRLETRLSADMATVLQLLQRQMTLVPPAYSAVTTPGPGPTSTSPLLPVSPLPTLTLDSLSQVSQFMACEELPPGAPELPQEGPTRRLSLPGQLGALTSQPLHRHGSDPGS

[4] = target: T1, NEDD8 activating enzyme; test: Inhibition of NAE (unknown origin); type: protein-complex assay
[5] = target: T1, NEDD8 activating enzyme; test: Inhibition of NAE in human HCT-116 cells incubated for 1 hr by Western blot analysis; type: cell-based
[6] = Half life in Sprague-Dawley rat at 1 mg/kg, iv; type: ADME, organism-based; settings: in vivo
[7] = AUClast in Sprague-Dawley rat at 1 mg/kg, iv; type: ADME, organism-based; set-up: time 0 - last, dose 1 mg/kg, route iv; settings: in vivo
[8] = Observed AUCinfinity in Sprague-Dawley rat at 1 mg/kg, iv; type: ADME, organism-based; set-up: time infinity, dose 1 mg/kg, route iv; settings: in vivo
[9] = Clearance in Sprague-Dawley rat at 1 mg/kg, iv; type: ADME, organism-based; settings: in vivo
[10] = Observed MRTinfinity in Sprague-Dawley rat at 1 mg/kg, iv; type: ADME, organism-based; settings: in vivo
[11] = Volume of distribution at steady state in Sprague-Dawley rat at 1 mg/kg, iv; type: ADME, organism-based; settings: in vivo, read-out: Vdss
[12] = Inhibition of UAE (unknown origin) […] assessed as decrease in UbcH10-Ub adduct formation incubated for 2 hrs in presence of L-glutathione and ATP by HTRF assay; set-up: species or system Homo sapiens
[13] = target: T2, NEDD8 activating enzyme (Homo sapiens) (UniProt Q8TBC4+Q13564); test: Inhibition of NAE in human HCT-116 cells mediated neddylation assessed as accumulation of CDT1 incubated for 24 hrs by Western blotting analysis; type: cell-based; settings: dose <= 1.0 µM, DDE = dose-dependent effect
[14] = target: T2, NEDD8 activating enzyme (Homo sapiens); test: Inhibition of NAE in human HCT-116 cells mediated neddylation assessed as accumulation of p27 incubated for 24 hrs by Western blotting analysis; type: cell-based; settings: dose <= 1.0 µM, DDE = dose-dependent effect
[15] = target: T2, NEDD8 activating enzyme (Homo sapiens); test: Inhibition of NAE in human HCT-116 cells mediated neddylation assessed as accumulation of p21 incubated for 24 hrs by Western blotting analysis; type: cell-based; settings: dose <= 1.0 µM, DDE = dose-dependent effect
[16] = target: T2, NEDD8 activating enzyme (Homo sapiens); test: Inhibition of NAE in human HCT-116 cells mediated neddylation assessed as accumulation of IkappaBalpha (Ser32/36) incubated for 24 hrs by Western blotting analysis; type: cell-based; settings: dose <= 1.0 µM, DDE = dose-dependent effect
[17] = target: T2, NEDD8 activating enzyme (Homo sapiens); test: Inhibition of NAE in human HCT-116 cells mediated neddylation assessed as increase in CHK phosphorylation incubated for 24 hrs by Western blotting analysis; type: cell-based
[18] = target: T2, NEDD8 activating enzyme (Homo sapiens); test: Inhibition of NAE in human HCT-116 cells mediated neddylation assessed as accumulation of gamma-H2AX incubated for 24 hrs by Western blotting analysis; type: cell-based
[19] = target: T2, NEDD8 activating enzyme (Homo sapiens); test: Inhibition of NAE in human HuTu80 cells mediated neddylation assessed as accumulation of CDT1 incubated for 24 hrs by Western blotting analysis; type: cell-based; settings: dose <= 1.0 µM, DDE = dose-dependent effect
[20] = target: T2, NEDD8 activating enzyme (Homo sapiens); test: Inhibition of NAE in human HuTu80 cells mediated neddylation assessed as accumulation of p27 incubated for 24 hrs by Western blotting analysis; type: cell-based; settings: dose <= 1.0 µM, DDE = dose-dependent effect
[21] = target: T2, NEDD8 activating enzyme (Homo sapiens); test: Inhibition of NAE in human HuTu80 cells mediated neddylation assessed as accumulation of p21 incubated for 24 hrs by Western blotting analysis; type: cell-based; settings: dose <= 1.0 µM, DDE = dose-dependent effect
[22] = target: T2, NEDD8 activating enzyme (Homo sapiens); test: Inhibition of NAE in human HuTu80 cells mediated neddylation assessed as accumulation of IkappaBalpha (Ser32/36) incubated for 24 hrs by Western blotting analysis; type: cell-based; settings: dose <= 1.0 µM, DDE = dose-dependent effect
[23] = target: T2, NEDD8 activating enzyme (Homo sapiens); test: Inhibition of NAE in human HuTu80 cells mediated neddylation assessed as accumulation of gamma-H2AX incubated for 24 hrs by Western blotting analysis; type: cell-based
[24] = target: T2, NEDD8 activating enzyme (Homo sapiens); test: Inhibition of NAE in human HuTu80 cells mediated neddylation assessed as increase in CHK phosphorylation incubated for 24 hrs by Western blotting analysis; type: cell-based
[25] = test system: MV4-11; test: Antiproliferative activity against human MV4-11 cells assessed as cell growth inhibition measured after 72 hrs by SRB assay; type: functional, cell-based; settings: MV4-11, 72 h
[26] = test system: THP-1; test: Antiproliferative activity against human THP-1 cells assessed as cell growth inhibition measured after 72 hrs by SRB assay; type: functional, cell-based; settings: THP-1, 72 h
[27] = test system: Jurkat; test: Antiproliferative activity against human Jurkat cells assessed as cell growth inhibition measured after 72 hrs by SRB assay; type: functional, cell-based
[28] = test system: HCT-116; test: Antiproliferative activity against human HCT-116 cells assessed as cell growth inhibition measured after 72 hrs by SRB assay; type: functional, cell-based; settings: HCT-116, 72 h
[29] = test system: HuTu80; test: Antiproliferative activity against human HuTu80 cells assessed as cell growth inhibition measured after 72 hrs by SRB assay; type: functional, cell-based; settings: HuTu80, 72 h
[30] = test system: RKO; test: Antiproliferative activity against human RKO cells assessed as cell growth inhibition measured after 72 hrs by SRB assay; type: functional, cell-based
[31] = test system: HT-29; test: Antiproliferative activity against human HT-29 cells assessed as cell growth inhibition measured after 72 hrs by SRB assay; type: functional, cell-based; settings: HT-29, 72 h
[32] = test system: LNCaP-Clone-FGC; test: Antiproliferative activity against human LNCaP-Clone-FGC cells assessed as cell growth inhibition measured after 72 hrs by SRB assay; type: functional, cell-based
[33] = test system: DU-145; test: Antiproliferative activity against human DU-145 cells assessed as cell growth inhibition measured after 72 hrs by SRB assay; type: functional, cell-based; settings: DU-145, 72 h
[34] = test system: CAPAN-1; test: Antiproliferative activity against human CAPAN-1 cells assessed as cell growth inhibition measured after 72 hrs by SRB assay; type: functional, cell-based; settings: CAPAN-1, 72 h
[35] = test system: HCT-116; test: Induction of cell cycle arrest in human HCT-116 cells assessed as accumulation of cells at G2/M phase incubated for 24 hrs by PI-staining-based flow cytometry; type: functional
[36] = test system: HCT-116; test: Induction of cell cycle arrest in human HCT-116 cells assessed as accumulation of cells at S phase at higher concentration incubated for 24 hrs by PI-staining-based flow cytometry; type: functional
[37] = test system: HCT-116; test: Induction of cell cycle arrest in human HCT-116 cells assessed as increase in > 4N cells at higher concentration incubated for 24 hrs by PI-staining-based flow cytometry; type: functional
[38] = test system: HCT-116; test: Induction of apoptosis in human HCT-116 cells assessed as increase in cleaved caspase-3 level upto 1 uM incubated for 48 hrs by Western blot analysis; type: functional, cell-based
[39] = test system: HCT-116; test: Induction of apoptosis in human HCT-116 cells assessed as increase in cleaved caspase-7 level upto 1 uM incubated for 48 hrs by Western blot analysis; type: functional, cell-based
[40] = test system: HCT-116; test: Induction of apoptosis in human HCT-116 cells assessed as increase in cleaved PARP1 level upto 1 uM incubated for 48 hrs by Western blot analysis; type: functional, cell-based
[41] = test system: HCT-116; test: Antitumor activity against human HCT-116 cells xenografted in nude mouse assessed as reduction in tumor growth at 130 mg/kg, sc qd for upto 18 days; type: functional; settings: time <= 18 day
[42] = Toxicity in nude mouse xenografted with human HCT-116 cells assessed as effect on body weight at 65 to 130 mg/kg, sc qd for upto 18 days; type: organism-based; settings: in vivo, 432 h, dose 65-130 mg/kg, time < 18 day

Compound: CC(C)(C)OC(=O)N1CCC2(CC1)C[C@H](Nc1ncnc3c1nnn3[C@@H]1C[C@@H](COS(N)(=O)=O)[C@@H](O)C1)c1ccccc12
IC50 [1]: 9.76 nM | IC50 [2]: 94.4 nM | IC50 [3]: > 40000 nM

Compound: CCOc1cccc(F)c1C#Cc1cn([C@@H]2O[C@H](COS(N)(=O)=O)[C@@H](O)[C@H]2O)c2ncnc(N)c12
IC50 [4]: 1 nM | IC50 [5]: 8 nM

Compound: NS(=O)(=O)OC[C@H]1O[C@@H](n2cnc3c(N[C@H]4CCc5ccccc54)ncnc32)[C@H](O)[C@@H]1O
IC50 [4]: 10 nM

Compound: NS(=O)(=O)OC[C@@H]1C[C@@H](n2nnc3c(N[C@H]4CCc5ccccc54)ncnc32)C[C@@H]1O
IC50 [1]: 0.21 nM | IC50 [2]: 43.2 nM | IC50 [3]: > 40000 nM

Continued by falling IC50 [1], values first:

IC50 [1]: 5.77 nM | IC50 [2]: 1420 nM
Compound: COCC(=O)N1CCC2(CC1)C[C@H](Nc1ncnc3c1nnn3[C@@H]1C[C@@H](COS(N)(=O)=O)[C@@H](O)C1)c1ccccc12

IC50 [1]: 2.28 nM | IC50 [2]: 38.8 nM
Compound: NS(=O)(=O)OC[C@@H]1C[C@@H](n2nnc3c(N[C@@H]4c5ccccc5C[C@@H]4O)ncnc32)C[C@@H]1O
IC50 [3]: > 40000 nM

IC50 [1]: 2.23 nM | IC50 [2]: 102 nM
Compound: CCOC(=O)N1CCC2(CC1)C[C@H](Nc1ncnc3c1nnn3[C@@H]1C[C@@H](COS(N)(=O)=O)[C@@H](O)C1)c1ccccc12

IC50 [1]: 0.55 nM | IC50 [2]: 36.2 nM | half-life [6]: 42.6 min | AUC(0-t) [7]: 560 ng·h/mL | AUC(0-inf) [8]: 563 ng·h/mL | clearance [9]: 29.7 mL/min/kg | MRT inf [10]: 60 min | Vd [11]: 1.78 L/kg | IC50 [12]: 66.8 nM | inhibition [13]: Dde | inhibition [14]: Dde | inhibition [15]: Dde | inhibition [16]: Dde | inhibition [17]: Active | inhibition [18]: Active | inhibition [19]: Dde | inhibition [20]: Dde | inhibition [21]: Dde | inhibition [22]: Dde | inhibition [23]: Active | inhibition [24]: Active | IC50 [25]: 106 nM | IC50 [26]: 353 nM | IC50 [27]: 482 nM | IC50 [28]: 33.9 nM | IC50 [31]: 407 nM | IC50 [32]: 264 nM | IC50 [33]: 482 nM
Compound: COC(=O)N1CCC2(CC1)C[C@H](Nc1ncnc3c1nnn3[C@@H]1C[C@@H](COS(N)(=O)=O)[C@@H](O)C1)c1ccccc12
IC50 [3]: > 40000 nM | IC50 [29]: 40 nM | IC50 [30]: 286 nM | IC50 [34]: 101 nM | Activity [35]: Active | Activity [36]: Active | Activity [37]: Active | Activity [38]: Active | Activity [39]: Active | Activity [40]: Active | T/C [41]: 0.19 | Activity [42]: Non-Toxic
